Activity calls are given as the source filed them. The rule behind the calls is not given here.
What was measured:
[1] = target: T1, ATP-citrate synthase (Homo sapiens) (UniProt P53396); assay: Inhibition of ATP citrate lyase (unknown origin) at 10 uM using sodium citrate as substrate in presence of CoA/ATP by ADP-Glo luminescence assay relative to control
T1 sequence (whole entry): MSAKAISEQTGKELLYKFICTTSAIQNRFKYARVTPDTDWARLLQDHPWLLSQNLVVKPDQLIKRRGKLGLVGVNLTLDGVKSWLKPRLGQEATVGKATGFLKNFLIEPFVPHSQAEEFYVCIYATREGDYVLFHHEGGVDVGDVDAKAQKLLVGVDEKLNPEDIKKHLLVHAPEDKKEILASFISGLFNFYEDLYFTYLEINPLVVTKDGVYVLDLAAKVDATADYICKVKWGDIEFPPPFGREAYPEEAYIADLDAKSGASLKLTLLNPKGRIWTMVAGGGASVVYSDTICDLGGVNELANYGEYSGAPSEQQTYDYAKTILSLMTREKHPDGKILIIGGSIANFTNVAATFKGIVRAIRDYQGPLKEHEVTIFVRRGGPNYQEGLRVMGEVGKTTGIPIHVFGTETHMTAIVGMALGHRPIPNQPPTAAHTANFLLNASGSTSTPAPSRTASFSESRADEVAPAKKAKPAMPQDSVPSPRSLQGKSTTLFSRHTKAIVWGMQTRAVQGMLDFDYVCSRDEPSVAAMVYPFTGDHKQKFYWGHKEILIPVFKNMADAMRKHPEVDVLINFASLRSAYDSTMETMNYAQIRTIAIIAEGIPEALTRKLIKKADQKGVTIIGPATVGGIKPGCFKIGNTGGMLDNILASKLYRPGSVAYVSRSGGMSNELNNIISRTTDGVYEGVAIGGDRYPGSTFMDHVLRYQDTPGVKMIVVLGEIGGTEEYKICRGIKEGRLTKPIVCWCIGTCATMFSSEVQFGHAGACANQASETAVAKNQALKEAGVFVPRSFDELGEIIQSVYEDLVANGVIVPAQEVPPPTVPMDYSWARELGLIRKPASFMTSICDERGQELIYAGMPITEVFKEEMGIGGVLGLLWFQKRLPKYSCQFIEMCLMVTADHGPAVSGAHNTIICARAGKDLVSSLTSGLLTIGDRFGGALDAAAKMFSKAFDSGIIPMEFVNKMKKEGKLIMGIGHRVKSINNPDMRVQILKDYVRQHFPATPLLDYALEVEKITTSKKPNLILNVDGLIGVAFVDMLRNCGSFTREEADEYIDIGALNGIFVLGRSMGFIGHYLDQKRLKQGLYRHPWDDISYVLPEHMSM

[2] = target: T1, ATP-citrate synthase (Homo sapiens); assay: Inhibition of ATP citrate lyase (unknown origin) at 100 uM using sodium citrate as substrate in presence of CoA/ATP by ADP-Glo luminescence assay relative to control
ATP-citrate synthase = target: T2, ATP-citrate synthase (Homo sapiens, UniProt P53396); assay: Inhibition of ATP citrate lyase (unknown origin) using sodium citrate as substrate by ADP-Glo luminescence assay
T2 sequence (P53396 whole entry): T1 sequence (whole entry)

[3] = target: T1, ATP-citrate synthase (Homo sapiens); assay: Competitive inhibition of ATP citrate lyase (unknown origin) using sodium citrate as substrate by ADP-Glo luminescence assay

inhibition [1] | inhibition [2] | IC50 (ATP-citrate synthase) | inhibition [3] | Compound
95% | 100% | – | – | CCCCCCc1cc2c3c(c(=O)oc2cc1OCc1cc(C(=O)O)oc1C)CCCC3
45% | 101% | 11.9 µM | – | Cc1oc(C(=O)O)cc1COc1ccc2c(C)c(Cc3ccccc3)c(=O)oc2c1
28% | 95% | – | – | Cc1oc2c(cc(NS(=O)(=O)c3ccc(F)cc3)c3ccccc32)c1C(=O)O
– | – | 0.377 µM | – | COc1ccc(-c2ccccc2)cc1NS(=O)(=O)c1cc(Cl)cc(Cl)c1O
18% | 88% | – | – | Cc1c(OCc2ccc(C(=O)O)o2)ccc2c3c(c(=O)oc12)CCCC3
– | – | – | Active | O=C(O)C[C@@](O)(C(=O)O)[C@H](O)C(=O)O
9% | 49% | – | – | O=C(O)c1ccc(COc2ccc3c(c2)oc(=O)c2ccccc23)o1
– | – | – | Active | O=C(O)C[C@@](O)(C[C@H](O)CCCCCCc1ccc(Cl)cc1Cl)C(=O)O
42% | 97% | 13.8 µM | – | CCc1ccc(S(=O)(=O)Nc2cc3c(C(=O)O)c(C)oc3c3ccccc23)cc1
32% | 84% | – | – | Cc1oc(C(=O)O)cc1COc1ccc2c(oc(=O)c3ccccc32)c1C
12% | 42% | – | – | Cc1ccc(S(=O)(=O)Nc2cc3c(C(=O)O)c(C)oc3c3ccccc23)cc1
16% | 59% | – | – | Cc1oc2c(cc(NS(=O)(=O)c3ccc(C(C)(C)C)cc3)c3ccccc32)c1C(=O)O
3% | 64% | – | – | Cc1oc(C(=O)O)cc1COc1ccc2c(c1)oc(=O)c1ccccc12
6% | 9% | – | – | Cc1oc2ccc(OC(C(=O)O)c3ccccc3)cc2c1C(=O)O (centres undefined)
17% | 90% | – | – | Cc1oc(C(=O)O)cc1COc1ccc2c3c(c(=O)oc2c1C)CCCC3
